Patent US20230302140A1, “CONJUGATE OF A SINGLE DOMAIN ANTIBODY, A SAPONIN AND AN EFFECTOR MOLECULE, PHARMACEUTICAL COMPOSITION COMPRISING THE SAME, THERAPEUTIC USE OF SAID PHARMACEUTICAL COMPOSITION” (SAPREME TECHNOLOGIES B.V., priority 2020, published 2023)

What was measured:
[1] = tested on: CaSki cells; test: Cell killing (MTS cell viability) assay; type: cell-based, human
Experimental: (§1) Cells were seeded in a 96 well plate at 5.000-1 0.000 c/w in 100 µL/well and incubated overnight at 37° C. […] The media was removed from the cell culture plate and replaced by 180 µL culture media, followed by the addition of 20 µL treatment-mix/well. […] In the case that endosomal acidification inhibitors (chloroquine (Sigma Aldrich) or bafilomycin A1 (Enzo Life Sciences)) were used, the cell culture media in step 1 of treatment was replaced by 180 µL media containing 1 µM chloroquine or 0.2 µM bafilomycin A1. The plate was incubated for 1 hour at 37° C., before the 10x treatment-mix samples were added. The remaining incubation and treatment steps were performed according to standard procedures known in the field.
(§2) After treatment the cells were incubated for 72 hr at 37° C. before the cell viability was determined by a MTS-assay, performed according to the manufacturer’s instruction (CellTiter 96® AQueous One Solution Cell Proliferation Assay, Promega). Briefly, the MTS solution was diluted 20x in DMEM without phenol red (PAN-Biotech GmbH) supplemented with 10% FBS (PAN-Biotech GmbH). The cells were washed once with 200 µL PBS per well, after which 100 µL diluted MTS solution was added per well. The plate was incubated for approximately 20-30 minutes at 37° C. Subsequently, the optical density at 492 nm was measured on a Thermo Scientific Multiskan FC plate reader (Thermo Scientific). For quantification the background signal of ‘medium only’ wells was subtracted from all other wells, before the ratio of […].

[2] = tested on: SK-BR-3 cells; test: Cell killing (MTS cell viability) assay; type: cell-based, human
Experimental: (§3) After treatment the cells were incubated for 72 hr at 37° C. before the cell viability was determined by a MTS-assay, performed according to the manufacturer’s instruction (CellTiter 96® AQueous One Solution Cell Proliferation Assay, Promega). Briefly, the MTS solution was diluted 20× in DMEM without phenol red (PAN-Biotech GmbH) supplemented with 10% FBS. The cells were washed once with 200 µL/PBS well, after which 100 µL diluted MTS solution was added/well. The plate was incubated for approximately 20-30 minutes at 37° C. Subsequently, the OD at 492 nm was measured on a Thermo Scientific Multiskan FC plate reader (Thermo Scientific). For quantification the background signal of ‘medium only’ wells was subtracted from all other wells, before the cell viability percentage of treated/untreated cells was calculated, by dividing the background corrected signal of treated wells over the background corrected signal of the untreated wells (x 100).
as §1, §2

[3] = tested on: MDA-MB-468 cells; test: Cell killing (MTS cell viability) assay; type: cell-based, human
Experimental: as §3, §1, §2

[4] = tested on: A2058 cells; test: Cell killing (MTS cell viability) assay; type: cell-based, human
Experimental: as §3, §1, §2

[5] = tested on: endosomal acidification; test: Cell viability assay with endosomal acidification inhibitors; type: cell-based; settings: targeted 2-component system; chloroquine or bafilomycin A1
Experimental: as §1

[6] = tested on: HeLa cells; test: Cell killing (MTS cell viability) assay; type: cell-based, human; settings: +1500 nM SO1861 (unconjugated)
Experimental: as §1, §2

[7] = tested on: JIMT-1 cells; test: Cell killing (MTS cell viability) assay; type: cell-based, human; settings: +1500 nM SO1861 (unconjugated)
Experimental: as §1, §2

[8] = target: human EGFR (human) (UniProt P00533); test: cell-based or functional assay
[9] = +50 pM CD71VHH-dianthin (fixed)
[10] = +50 pM VHH-EGFR-dianthin (fixed)
[11] = +50 pM VHH-HER2-dianthin (fixed)

In the case of CC(=O)O[C@H]1[C@H](O[C@@H]2OC[C@@H](O)[C@H](O)[C@H]2O)[C@@H](O)[C@H](O[C@@H]2[C@H](O)[C@@H](O[C@@H]3O[C@@H](C)[C@H](O[C@@H]4OC[C@@H](O)[C@H](O[C@@H]5O[C@H](CO)[C@@H](O)[C@H](O)[C@H]5O)[C@H]4O)[C@@H](O)[C@H]3O)[C@H](OC(=O)[C@]34CCC(C)(C)C[C@H]3C3=CC[C@@H]5[C@@]6(C)CC[C@H](O[C@@H]7O[C@H](C(=O)O)[C@@H](O)[C@H](O[C@@H]8OC[C@@H](O)[C@H](O)[C@H]8O)[C@H]7O[C@@H]7O[C@H](CO)[C@H](O)[C@H](O)[C@H]7O)[C@@](C)(C=O)[C@@H]6CC[C@@]5(C)[C@]3(C)C[C@H]4O)O[C@@H]2C)O[C@@H]1C [SO1861], the IC50 ([1]; +10 pM cetuximab-saporin (fixed), calculated on concentration SO1861) is reported as 700 nM, the IC50 ([1]; +50 pM trastuzumab-saporin (fixed), Ex.9/Table A6: calculated on concentration SO1861) is reported as ≥ 1000 nM and the IC50 ([2]; +1.5 pM EGF-dianthin (fixed), Ex.9/Table A6: calculated on concentration SO1861) is reported as 800 nM. The IC50 ([2]; +10 pM EGF-dianthin (fixed), Table A6: calculated on concentration SO1861) was 650 nM, the IC50 [2, 9] was 200 nM and the IC50 [2, 10] was 700 nM. It also gave an IC50 [2, 11] of 200 nM, an IC50 [3, 9] of 200 nM and an IC50 [3, 10] of 300 nM. The IC50 cell killing [3, 11] was “no enhanced activity compared to SO1861alone”, the IC50 ([4]; +50 pM VHH-CD71-dianthin (fixed)) was 200 nM and the IC50 cell killing [4, 10] was “no activity”. The “SO1861 function with endosomal acidification inhibitors” value [5] was “function is reduced when acidification of endosomes is blocked”.
Work on Saporin yielded an IC50 [6] of 0.03 nM, an IC50 [7] of 0.03 nM and an IC50 ([1]; +1500 nM SO1861 (unconjugated)) of 0.015 nM.
Work on “cetuximab-saporin (monoclonal antibody recognizing and binding EGFR, conjugated to the protein toxin, saporin)” yielded a cell killing (MTS) on MDA-MB-468 cells (EGFR++), cetuximab-saporin alone, IC50 [8] of 0.3 nM.
